Reference: patent publication US8207188B2, “Treatment of diseases modulated by a H4 receptor agonist” (priority 2006, dated 2012)
“Also recorded” adds a separate entry of the source.

Assays:
[1] = test system: Mouse medullary cells C57B1/6 expressing H4R; assay: Proliferation of Colony Forming Cells (CFC) in semi-solid media; type: cell-based; details: 7 days; for inhibitory activity of cell proliferation (CFC): Example 20
Method: Using the assay described in Example 15, above, the effect of TRQ or CB on cells expressing H4R was tested. Mouse medullary cells C57B1/6 expressing H4R (50,000 cells/Petri dish) were incubated in a semi-solid media with haematopoietic growth factors (IL-3: 10 ng/ml) for 7 days with TRQ or CB.
Using the assay described in Example 15, above, the effect of TRQ or CB on cells expressing H4R was tested. Mouse medullary cells C57B1/6 expressing H4R (50,000 cells/Petri dish) were incubated in a semi-solid media with haematopoietic growth factors (IL-3: 10 ng/ml) for 7 days with a TRQ (racemic mixture of RR and SS isomers at 1 μM and 10 μM concentration); TRQ isomer E1 (10 μM concentration); TRQ isomer E2 (10 μM concentration) and CB (10 μM concentration).

[2] = test system: Mouse C57B1/6 Haematopoietic stem cells; assay: G0/G1 cell cycle of sorted haematopoietic stem cells, 2 h incubation (Example 17); type: cell-based; details: 2 hours incubation with growth factors
Method: Mouse C57B1/6 Haematopoietic stem cells were enriched with bone marrow cells by magnetic sorting. Only cells expressing surface tyrosine kinase were sorted. Cells were incubated for 2 hours with growth factors (IL-3 10 ng/ml, IL-6 10 ng/ml, SCF 50 ng/ml) and TRQ and its enantiomers, E1 and E2.
After 2 hours of incubation, cells were washed and incubated with […] for 30 minutes read by FACS scan.

[3] = test system: Mouse medullary cells C57B1/6 expressing H4R; assay: Percentage of cells at G0/G1 phase, TRQ racemate and enantiomers with and without CB (Example 21); type: cell-based
Method: This experiment was conducted at two concentrations for all TRQ molecules (10 μM and 1 μM) in the presence and absence of CB (10 μM).
Using the assay described in Example 15, above, the effect of TRQ or CB on cells expressing H4R was tested. Mouse medullary cells C57B1/6 expressing H4R (50,000 cells/Petri dish) were incubated in a semi-solid media with haematopoietic growth factors such as IL-3 (10 ng/ml) for 7 days with a TRQ (racemic mixture of RR and SS isomers at 1 μM and 10 μM concentration); purified TRQ isomer E1 (10 μM and 1 μM concentration); purified TRQ isomer E2 (10 μM and 1 μM concentration) and CB (10 μM concentration). […] Similar results were shown with the purified TRQ isomers. In each experiment cells were incubated in the presence of growth factors (GF, FIG. 15).

[4] = target: T1, Organic Cation Transporter-3 (OCT-3) (Mus musculus, UniProt Q9WTW5); assay: Histamine uptake by bone marrow cells; type: cell-based, murine
T1 construct: from tissue; host or cells: total bone marrow cells
T1 sequence (Q9WTW5 1-551): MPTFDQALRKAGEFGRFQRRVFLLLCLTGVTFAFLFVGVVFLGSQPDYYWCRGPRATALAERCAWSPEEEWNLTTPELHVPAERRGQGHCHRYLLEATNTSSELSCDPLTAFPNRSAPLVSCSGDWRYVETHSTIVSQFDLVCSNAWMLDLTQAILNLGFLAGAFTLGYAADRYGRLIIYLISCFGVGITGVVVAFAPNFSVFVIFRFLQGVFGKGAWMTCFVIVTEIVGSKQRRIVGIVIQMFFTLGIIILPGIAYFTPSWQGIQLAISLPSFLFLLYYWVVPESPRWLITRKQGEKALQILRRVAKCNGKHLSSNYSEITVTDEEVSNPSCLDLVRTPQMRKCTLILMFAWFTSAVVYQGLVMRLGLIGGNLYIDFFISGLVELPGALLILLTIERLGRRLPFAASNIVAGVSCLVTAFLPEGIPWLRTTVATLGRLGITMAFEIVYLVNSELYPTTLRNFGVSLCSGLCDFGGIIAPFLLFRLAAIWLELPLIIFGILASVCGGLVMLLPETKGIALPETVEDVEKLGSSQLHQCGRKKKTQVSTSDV
Method: Cell cultures. Bone marrow (BM) cells were prepared as reported (Schneider, et al. J. Immunol. 139:3710-717) and adjusted to a final concentration of 2.5×10^6 per ml in culture medium (MEM) supplemented with 10% horse serum. Various doses (10^−5-10^−7 M) of Clobenpropit or Tritoqualine were added shortly before the addition of IL-3 (1 ng/ml), followed by a 24-h incubation at 37° C., 5% CO2.
Cytokine assays, measurement of histamine production, and uptake. IL-6 and IL-4 production was measured in cell supernatants recovered after a 24-h incubation. Histamine was quantified by an automated continuous flow spectrofluorometric technique (Schneider, et al. J. Immunol. 139:3710-717). For binding experiments, 10^6 total BM cells were plated in round-bottomed 96-well polypropylene plates (Costar). Unless stated otherwise, the cells were incubated (37° C., 5% CO2) for 3 h with 3 μCi/ml of [^3H]histamine dihydrochloride (2.5×10^−7 M; 12 Ci/mmol) in a final volume of 100 μl. Competition assays were performed as previously described (Corbel, S., et al. 1995. Blood. 86:531-539; Corbel, S., et al. 1995, FEBS Lett. 404:289-293). Each experiment was performed in triplicate, and histamine binding was calculated from total cpm after subtraction of nonspecific binding to filters.

[5] = target: T2, Serotonin Transporter (SERT) (Mus musculus, UniProt Q60857); assay: Serotonin uptake by bone marrow cells; type: cell-based, murine
T2 construct: from tissue; host or cells: total bone marrow cells
T2 sequence (Q60857 whole entry): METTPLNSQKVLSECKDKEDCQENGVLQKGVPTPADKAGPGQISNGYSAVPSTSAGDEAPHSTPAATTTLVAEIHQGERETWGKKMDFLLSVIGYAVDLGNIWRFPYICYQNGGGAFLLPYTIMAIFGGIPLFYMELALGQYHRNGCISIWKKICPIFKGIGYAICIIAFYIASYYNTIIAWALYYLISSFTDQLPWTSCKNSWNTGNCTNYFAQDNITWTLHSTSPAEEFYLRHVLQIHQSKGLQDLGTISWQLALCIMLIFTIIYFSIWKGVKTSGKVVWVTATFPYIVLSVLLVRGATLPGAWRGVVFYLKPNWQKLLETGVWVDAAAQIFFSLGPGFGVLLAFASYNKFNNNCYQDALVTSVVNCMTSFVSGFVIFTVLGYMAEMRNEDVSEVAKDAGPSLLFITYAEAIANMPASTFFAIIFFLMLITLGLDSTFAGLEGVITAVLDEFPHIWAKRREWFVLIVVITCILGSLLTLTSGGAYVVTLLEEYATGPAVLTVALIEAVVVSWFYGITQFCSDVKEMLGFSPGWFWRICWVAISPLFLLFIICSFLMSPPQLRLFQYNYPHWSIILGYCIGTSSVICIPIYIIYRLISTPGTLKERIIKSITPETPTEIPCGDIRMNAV

[6] = test system: c-kit+ BM cells; assay: Cell cycle status of c-kit+ BM cells with pertussis toxin; type: cell-based, murine; details: 10 μM, 2 h
Method: Progenitor-enriched murine c-kit^+ BM or cord blood-derived CD34^+ cells were prepared by positive magnetic selection, suspended at a final concentration of 10^5 per ml in serum-free StemSpan medium (StemCell Technologies) and cultured up to 3 days in the presence of 10 ng of IL-3, 10 ng of IL-6 and 50 ng of SCF (Stem Cell Factor) per ml, with or without Clobenpropit (10^−5 M), Tritoqualine or both.
Magnetically sorted c-kit^+ BM cells were incubated for 2 h in StemSpan medium with growth factor cocktail alone or in the presence of 10^−5 M Clobenpropit, Tritoqualine or enantiomers. The cell cycle status was then assessed using Vybrant DyeCycle Violet (VDV) Stain (Invitrogen), according to the manufacturer's instructions.
The effect of Bordetella pertussis toxin (PTX; 100 ng/ml), an inhibitor of Gi/o coupling to the H4R, on the cell cycle arrest promoted by receptor activation was evaluated in the same conditions. After incubation, cells were analyzed using FlowJo software.

[7] = 10 μM, compared to control (GF only)

CCOc1c(N)c2c(c(OCC)c1OCC)C(C1c3c(cc4c(c3OC)OCO4)CCN1C)OC2=O (racemic) [Tritoqualine, 7-Amino-4,5,6-triethoxy-3-(5,6,7,8-tetrahydro-4-methoxy-6-methyl-1,3-dioxolo[4,5-g]isoquinolin-5-yl) phthalide] was tested, and the “inhibition of proliferation of CFC” value ([1]; Example 16, 10 μM, IL-3 10 ng/ml, listed as TRQ) was “more potent inhibitor of cell proliferation than the Clobenpropit”, the “inhibitory activity of cell proliferation (CFC)” value (from here on “inhibitory activity … (CFC)”) ([1]; 1 μM) was “less inhibitory activity in comparison to 10 μM CB” and the “inhibition of G0/G1 phase” value [2] was “approximately 50%”. For the same molecule, the “percentage of cells at the G0/G1 phase / inhibitory activity of cell proliferation” value ([3]; 1 μM, listed as TRQ) was “also increased the percentage of cells at the G0/G1 phase”, the “percentage of cells at the G0/G1 phase / inhibitory activity of cell proliferation” value ([3]; 1 μM, listed as racemic TRQ) was “less inhibitory activity in comparison to 10 μM CB” and the “percentage of cells at the G0/G1 phase / inhibitory activity of cell proliferation” value [3, 7] was “also increased the percentage of cells at the G0/G1 phase”. The “effect on biogenic monoamine uptake by OCT-3” value ([4]; listed as TRQ) was “do not significantly alter; also recorded: does not affect” and the “effect on biogenic monoamine uptake by SERT” value ([5]; listed as TRQ) was “do not significantly alter; also recorded: does not affect”.
In the case of CCOc1c(N)c2c(c(OCC)c1OCC)[C@@H]([C@@H]1c3c(cc4c(c3OC)OCO4)CCN1C)OC2=O [E2], the “inhibitory activity … (CFC)” value ([1]; 10 μM) is reported as “exerted inhibitory activity of cell proliferation”, the “inhibition of G0/G1 phase” value [2] is reported as 57% and the “percentage of cells at the G0/G1 phase / inhibitory activity of cell proliferation” value ([3]; 1 μM) is reported as “higher percentage of cells at the G0/G1 phase than the racemic TRQ”. The “percentage of cells at the G0/G1 phase / inhibitory activity of cell proliferation” value [3, 7] was “exerted inhibitory activity of cell proliferation”, the “H4R agonist activity (percentage of cells at the G0/G1 phase)” value [6] was “H4R agonist activity similar to the one of CB” and the “inhibition of histamine uptake” value ([4]; 1 μM) was “negligible”. The “inhibition of histamine uptake” value ([4]; 10 μM) was “greatly reduced”, the “inhibition of serotonin uptake” value ([5]; 1 μM) was “negligible” and the “inhibition of serotonin uptake” value ([5]; 10 μM) was “greatly reduced”.
CCOc1c(N)c2c(c(OCC)c1OCC)[C@H]([C@H]1c3c(cc4c(c3OC)OCO4)CCN1C)OC2=O [E1] was tested, and the “inhibitory activity … (CFC)” value ([1]; 10 μM) was “slightly more potent than isomer E2”, the “inhibition of G0/G1 phase” value [2] was “approximately 50%” and the “percentage of cells at the G0/G1 phase / inhibitory activity of cell proliferation” value ([3]; 1 μM) was “higher percentage of cells at the G0/G1 phase than the racemic TRQ”. The “percentage of cells at the G0/G1 phase / inhibitory activity of cell proliferation” value [3, 7] was “slightly more potent than isomer E2”, the “H4R agonist activity (percentage of cells at the G0/G1 phase)” value [6] was “H4R agonist activity similar to the one of CB” and the “inhibition of histamine uptake” value ([4]; 1 μM) was “negligible”. The “inhibition of histamine uptake” value ([4]; 10 μM) was “greatly reduced”, the “inhibition of serotonin uptake” value ([5]; 1 μM) was “negligible” and the “inhibition of serotonin uptake” value ([5]; 10 μM) was “greatly reduced”.
